# Data as given in patent US10703746B2, “Mutant IDH1 inhibitors useful for treating cancer” (THE UNITED STATES OF AMERICA, AS REPRESENTED BY THE …, priority 2014, dated 2020).
# Assays:
# [1] = biological target: IDH1 R132H (Homo sapiens, UniProt O75874, R132H); experiment: IDH1 R132H enzymatic assay (NADPH depletion coupled to diaphorase/resazurin); format: biochemical
# [2] = biological target: IDH1 R132C (Homo sapiens, UniProt O75874, R132C); experiment: IDH1 R132C enzymatic assay (NADPH depletion coupled to diaphorase/resazurin); format: biochemical
# IDH1 R132C, sequence (O75874 whole entry R132C): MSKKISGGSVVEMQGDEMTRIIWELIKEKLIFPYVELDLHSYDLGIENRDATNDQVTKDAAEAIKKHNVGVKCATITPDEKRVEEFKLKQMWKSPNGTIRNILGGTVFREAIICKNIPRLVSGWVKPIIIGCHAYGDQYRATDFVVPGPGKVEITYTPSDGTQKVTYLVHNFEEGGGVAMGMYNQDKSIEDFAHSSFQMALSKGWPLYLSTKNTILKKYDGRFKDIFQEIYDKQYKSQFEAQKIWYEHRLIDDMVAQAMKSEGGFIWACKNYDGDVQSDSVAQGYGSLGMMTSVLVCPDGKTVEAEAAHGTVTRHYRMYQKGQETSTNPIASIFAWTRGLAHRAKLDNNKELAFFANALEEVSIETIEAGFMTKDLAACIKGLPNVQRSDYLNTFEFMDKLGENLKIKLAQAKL
# In short: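 NADPH depletion, read via diaphorase/resazurin coupling, after adding substrate at 0.6 mM α-KG and 0.012 mM NADPH. Beforehand, 0.00032 mg/mL enzyme sat with compound 30 min at room temperature in pH 6.5 potassium phosphate buffer with MgCl2, glycerol and BSA.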
# [3] = enzymatic inhibition, IDH1 R132H
# [4] = enzymatic inhibition, IDH1 R132C
# [5] = IDH1 R132H enzymatic inhibition, IC50 class
# [6] = IDH1 R132C enzymatic inhibition, IC50 class
# IDH1 R132H, sequence (O75874 whole entry R132H): as the sequence (O75874 whole entry R132C) above, with C132H counted along it
SMILES,"IC50 [1, 3] [nM]","IC50 [2, 4] [nM]","IC50 [1, 5] [nM]","IC50 [2, 6] [nM]"
CCc1cccc(CC)c1-n1c(C=C(C)C)c(C(=O)N2CCN[C@@H](C(=O)O)C2)cc(-c2nc(-c3ccc(C(F)(F)F)cc3)cs2)c1=O [Compound 577],< 300,< 300,,
CCOc1ncc(F)cc1-n1c(C=C(C)C)c(C(=O)N2CCNCC2)cc(-c2nc(-c3ccc(C(F)(F)F)nc3)cs2)c1=O [Compound 534],< 300,< 300,,
CCc1cccc(CC)c1-n1c2c(cc(-c3nc(C4=CCN(C(=O)OC(C)(C)C)CC4)c(C)s3)c1=O)C(=O)CC(C)(C)C2 [Compound 197],,,1000 to 5000,5000 to 20000
CCc1cccc(CC)c1-n1c(C=C(C)C)c(C(=O)N2CCNC(C(N)=O)C2)cc(-c2ccn(-c3ccc(Cl)cc3)n2)c1=O (centres unmarked) [Compound 653],,,< 300,< 300
Cc1nonc1-n1c2c(cc(-c3nc(-c4ccc(Cl)cc4)cs3)c1=O)C(=O)CC(C)(C)C2 [Compound 439],> 20000,1000 to 5000,,
CCc1cccc(CC)c1-n1c(C=C(C)C)c(C(=O)N2CCNCC2)cc(-c2nc(-c3ccc(C(F)(F)F)cn3)cs2)c1=O [Compound 515],< 300,< 300,,
CCc1cccc(CC)c1-n1c(C=C(C)C)c(C(=O)N2CCNCC2)cc(-c2nc(-c3ccc(C(F)F)cc3)cs2)c1=O [Compound 336],,,< 300,< 300
CC1(C)CC(=O)c2cc(-c3nc(-c4ccc(Cl)cc4)cs3)c(=O)n(-c3sccc3C(N)=O)c2C1 [Compound 369],,,5000 to 20000,5000 to 20000
CCc1cccc(CC)c1-n1c(C)c(C(=O)N2CCOCC2)cc(-c2nc(-c3ccc(Cl)cc3)cs2)c1=O [Compound 110],,,1000 to 5000,1000 to 5000
CCc1cccc(CC)c1-n1c(C=C(C)C)c(C(=O)N2CCNC(=O)C2)cc(-c2ccn(-c3ccc(Cl)cc3)n2)c1=O [Compound 593],< 300,< 300,,
CCc1cccc(CC)c1-n1c(C)c(C(=O)N2CCCCC2)cc(-c2nc(-c3ccc(Cl)cc3)cs2)c1=O [Compound 156],,,1000 to 5000,1000 to 5000
CCOc1ccc(OCC)c(-n2c3c(cc(-c4nc(-c5ccc(Cl)cc5)cs4)c2=O)C(=O)CC(C)(C)C3)c1 [Compound 828],,,300 to 1000,< 300
COc1ccc(OC)c(-n2c3c(cc(-c4ncc(-c5ccc(Cl)cc5)s4)c2=O)C(=O)CC(C)(C)C3)c1 [Compound 266],,,> 20000,> 20000
CCc1cccc(CC)c1-n1c(CC(C)C)c(C(=O)N2CCNC(C)(C(=O)O)C2)cc(-c2nc(-c3ccc(Cl)cc3)cs2)c1=O (centres unmarked) [Compound 80],,,300 to 1000,< 300
CCc1cccc(CC)c1-n1c(C=C(C)C)c(C(=O)N2CCCNC(=O)C2)cc(-c2ccn(-c3ccc(Cl)cc3)n2)c1=O [Compound 635],,,< 300,< 300
CCc1cccc(CC)c1-n1c(CC(C)C)c(C(=O)N[C@@H]2CCC[C@H]2O)cc(-c2nc(-c3ccc(Cl)cc3)cs2)c1=O [Compound 217],,,1000 to 5000,300 to 1000
CC(C)=Cc1c(C(=O)N2CCNCC2)cc(-c2nc(-c3ccc(Cl)cc3)cs2)c(=O)n1-c1cc(Cl)cnc1OC(C)C [Compound 602],< 300,< 300,,
CCc1cccc(CC)c1-n1c(C=C(C)C)c(C(=O)N2CCNCC2)cc(-c2nc(-c3ccc(C(F)F)cn3)cs2)c1=O [Compound 559],< 300,< 300,,
CCc1cccc(CC)c1-n1c(C)c(C(=O)N2CCN[C@@H](C(=O)O)C2)cc(-c2nc(-c3ccc(Cl)cc3)cs2)c1=O [Compound 21],,,300 to 1000,1000 to 5000
CCc1cccc(CC)c1-n1c(C=C(C)C)c(C(=O)N2CCC(NC)CC2)cc(-c2nc(-c3ccc(Cl)cc3)cs2)c1=O [Compound 623],,,< 300,< 300
CCc1cccc(CC)c1-n1c(CC(C)C)c(C(=O)N2CCNCC2)cc(-c2nc(-c3ccc(C(C)(C)C)cc3)c(C)s2)c1=O [Compound 160],,,1000 to 5000,1000 to 5000
COc1ccc(OC)c(-n2c(=O)c(-c3nc(-c4ccc(Cl)cc4)cs3)cc3c(OC)nccc32)c1 [Compound 97],,,5000 to 20000,1000 to 5000
CCOc1ccc(-n2ccc(-c3cc(C(=O)N4CCNCC4)c(CC(C)C)n(-c4c(CC)cccc4CC)c3=O)n2)cc1 [Compound 458],< 300,< 300,,

SMILES,"IC50 [1, 3] [nM]","IC50 [2, 4] [nM]","IC50 [1, 5] [nM]","IC50 [2, 6] [nM]"
CC1(C)CC(=O)c2cc(-c3nc(-c4ccc(Cl)cc4)cs3)c(=O)n(-c3ccccc3F)c2C1 [Compound 195],,,300 to 1000,300 to 1000
CCc1cccc(CC)c1-n1c(C=C(C)C)c(C(=O)N2CCNC[C@@H]2C)cc(-c2nc(-c3ccc(C(F)(F)F)cc3)cs2)c1=O [Compound 604],< 300,< 300,,
COc1ccc(OC)c(-n2c3c(cc(-n4ccc(-c5ccccc5)n4)c2=O)C(=O)CC(C)(C)C3)c1 [Compound 191],,,1000 to 5000,1000 to 5000
COc1cccc(OC)c1-n1c(CC(C)C)c(C(=O)N2CCNCC2)cc(-c2nc(-c3ccc(Cl)cc3)cs2)c1=O [Compound 461],< 300,300 to 1000,,
CC1(C)CC(=O)c2cc(-c3nc(-c4ccc(Cl)cc4)cs3)c(=O)n(-c3cc(Cl)ccc3Cl)c2C1 [Compound 522],1000 to 5000,300 to 1000,,
CCOc1ccc(-n2ccc(-c3cc(C(=O)N4CCNCC4)c(C=C(C)C)n(-c4c(CC)cccc4CC)c3=O)n2)cc1 [Compound 552],< 300,< 300,,
CCCC1CNCCN1C(=O)c1cc(-c2nc(-c3ccc(Cl)cc3)cs2)c(=O)n(-c2c(CC)cccc2CC)c1C=C(C)C (centres unmarked) [Compound 648],,,300 to 1000,< 300
COc1ccc(-n2cccc(-c3nc(-c4ccc(Cl)cc4)cs3)c2=O)c(OC)c1 [Compound 165],,,> 20000,> 20000
CCc1cccc(CC)c1-n1c(C)c(C(=O)N(C)CCN)cc(-c2nc(-c3ccc(Cl)cc3)cs2)c1=O [Compound 152],,,1000 to 5000,1000 to 5000
CCc1cccc(CC)c1-n1c(C2CCOCC2)c(C(=O)N2CCNCC2)cc(-c2nc(-c3ccc(Cl)cc3)cs2)c1=O [Compound 446],1000 to 5000,300 to 1000,,
Cc1cc(CO)ccc1-n1c2c(cc(-c3nc(-c4ccc(Cl)cc4)cs3)c1=O)C(=O)CCC2 [Compound 342],,,5000 to 20000,5000 to 20000
CCOc1ccc(C)cc1-n1c(C=C(C)C)c(C(=O)N2CCNCC2)cc(-c2nc(-c3ccc(C(F)(F)F)nc3)cs2)c1=O [Compound 420],< 300,< 300,,
CCOC(=O)c1cc(-c2nc(-c3ccc(Cl)cc3)cs2)c(=O)n(-c2c(CC)cccc2CC)c1-c1ccccc1 [Compound 3],,,> 20000,> 20000
CCc1ncc(F)cc1-n1c(C=C(C)C)c(C(=O)N2CCNCC2)cc(-c2nc(-c3ccc(Cl)cc3)cs2)c1=O [Compound 507],< 300,< 300,,
CCc1cccc(CC)c1-n1c(CC(C)C)c(C(=O)N2CCNC3(CCC3)C2)cc(-c2nc(-c3ccc(Cl)cc3)cs2)c1=O [Compound 465],< 300,< 300,,
COc1cccc(-n2c3c(cc(-c4nc(-c5ccc(Cl)cc5)cs4)c2=O)C(=O)CC(C)(C)C3)c1OC [Compound 567],1000 to 5000,1000 to 5000,,
CCc1cccc(CC)c1-n1c(C=C(C)C)c(C(=O)N2CCNC(C#N)C2)cc(-c2nc(-c3ccc(Cl)cc3)cs2)c1=O (centres unmarked) [Compound 657],,,< 300,< 300
Cc1cc(C#N)c(-n2c3c(cc(-c4nc(-c5ccc(Cl)cc5)cs4)c2=O)C(=O)CC(C)(C)C3)s1 [Compound 346],,,300 to 1000,300 to 1000
COc1ccc(OC)c(-n2c3c(cc(-c4c[nH]c(-c5ccccc5)n4)c2=O)C(=O)CC(C)(C)C3)c1 [Compound 290],,,1000 to 5000,1000 to 5000
Cc1cccc(O)c1-n1c2c(cc(-c3nc(-c4ccc(Cl)cc4)cs3)c1=O)C(=O)CC(C)(C)C2 [Compound 246],,,1000 to 5000,1000 to 5000
"CCOC(=O)c1c(O)c(-c2nc(-c3ccc(Cl)cc3)cs2)c(=O)n(-c2c(CC)cccc2CC)c1C [Compound 347, ethyl 5-(4-(4-chlorophenyl)thiazol-2-yl)-1-(2,6-diethylphenyl)-4-hydroxy-2-methyl-6-oxo-1,6-dihydropyridine-3-carboxylate]",,,5000 to 20000,5000 to 20000
COc1cccc(F)c1-n1c(C=C(C)C)c(C(=O)N2CCNCC2)cc(-c2nc(-c3ccc(Cl)cc3)cs2)c1=O [Compound 556],< 300,< 300,,
CCOc1ccc(F)cc1-n1c(CC(C)C)c(C(=O)N2CCNCC2)cc(-c2nc(-c3ccc(C(F)F)cc3)cs2)c1=O [Compound 686],,,300 to 1000,300 to 1000
